Literature values in patent US4699782A (Delalande S.A., priority 1983, dated 1987).

Settings: human, in vivo; cited from earlier work

Q: Which “dose of Tyramine from which hypertensive effects were recorded” value does the source give for `C#CCN(C)CCCOc1ccc(Cl)cc1Cl` [Clorgyline] here?
A: The value was no less than 6 mg.
